Experimental findings from patent US20160310524A1, “COMPOSITIONS AND METHODS FOR TREATING DYSREGULATED SYSTEMS” (priority 2013, published 2016) are described below.

Assay type in all cases: in vivo
Data set [1] has as its system patients where involvement with glutamate is suspected. Nature of the data set: Low dose (Trojan horse) treatment of patients where involvement with glutamate is suspected. From the text: For example one of the stimulating systems in the body is the glutamate receptor mechanism. Some of the biggest challenges in neuropsychiatric pharmacology is breaking through the defenses of these “buffered” systems like NMDA. The “Trojan horses” can enter into the receptor mechanism and change it without disturbing the situation. This explains why certain diseases that are not well treated, such as autism, have responded to any number of treatments but none of them consistently. If the balance between more autistic and less autistic behavior is very much leaning toward improved socialization, then perhaps any “Trojan horse” that can slip past the “fortress” of the glutamate receptors that are refusing to participate may add enough positive to affect socialization and the child has a miraculous response to the minute dose of medicine.
Examples: low dose Abilify and mecamylamine have been successful in treating patients where involvement with glutamate is suspected. Indeed we have few disorders that are known to be caused by glutamate despite the large role it plays in brain function. One medication that has been used for several years is Mematine, which is supposed to help memory in patients with Alzheimer's. […] Another example is the destructive flashbacks seen when individuals have taken PCP. […]

Data set [2] deals with subject with dissociation disorder. Nature of the data set: Example protocol for memantine (Namenda) in dissociation disorder: sample chart for an example patient. On the procedure:
Example Protocol for Memantine (Namenda®)
Day 1: Give Namenda ½ of a 5 mg tablet in the morning.
Day 2: If the patient has absolutely no positive change in their behavior in the form of genuine social interactions, give another ½ of a 5 mg tablet in the morning.
Day 3: No matter what happened, give no Namenda on Day 3.
If there has been no improvement, give ½ of a 5 mg tablet in the morning.
Day 5: If there has been no improvement since Day 1, give ½ of a 5 mg tablet in the morning.
Day 6: No matter what happens, give no Namenda on Day 6.
Day 7: If there has been only minimal improvement after a total of 7.5 mg of Namenda, give ½ of a 5 mg Namenda. If there has been no improvement after a total of 10 mg of Namenda, give ½ of a 5 mg Namenda. Otherwise, give no Namenda on Day 7. […]
Here is a sample chart for an example patient following the steps and a plan for week 2. […]
Side effects of Namenda: how to know if the dose is too high. The negative social effects of Namenda can be described as disinhibitory. This mean that the person's normal understanding of personal boundaries with others is lost—i.e., the patient loses their inhibition like someone who is intoxicated. They may be excessively aggressive both verbally and physically about incidental matters. They may become intrusive into other people's business. They may become flirtatious or aggressive. If a person has any of these behaviors it most likely means that the Namenda dose is getting too high.

Data set [3] in a line: Effect of memantine on socialization in people. The conditions noted are these: in many people.
Data set [4] relates to seizure patient with rage behavior. Nature of the data set: Case number 2: seizure patient with rage behavior. Here is the method: The patient had been on a large dose thioridazine (400 mg/day).
One drives fear and involves beta-receptors. The other drives aggression and involves alpha-receptors.

Data set [5] concerns schizophrenic acute psychosis patients and patients having autism spectrum social disorder. Nature of the data set: Mecamylamine in patients with schizophrenic acute psychosis or autism spectrum social disorder: verbal communication. Here is the method:
In some embodiments, the effective dose of mecamylamine is 0.025 mg/kg to about 0.125 mg/kg twice a week. In some cases, the effective dose of mecamylamine in schizophrenic acute psychosis patients and patients having autism spectrum social disorder results in improved verbal communication from 50 to 150%. In some embodiments, one dose may have an effect of improved verbal communication up to two months.

[6] abbreviates: Day 1, dose given ½ of a 5 mg Namenda.
Setting [7] is: Day 2, dose given ½ of a 5 mg Namenda.
Setting [8] is: Day 5, dose given ½ of a 5 mg Namenda.

Structures are written as SMILES.

For the compound `O=C1CCc2ccc(OCCCCN3CCN(c4cccc(Cl)c4Cl)CC3)cc2N1` [Abilify, aripiprazole], the success of treatment entry in data set [1] is “successful”.
As for `CC12CC3CC(C)(C1)CC(N)(C3)C2` [Namenda, memantine], the Improvement result is “None” in data set [2] (setting [6]); “None” in data set [2] (setting [7]); “Slight” in data set [2] (Day 3, no dose given); “Slight” in data set [2] (Day 4, no dose given); “Good” in data set [2] (setting [8]); “Continues Good” in data set [2] (Day 6, no dose given). Further, the Improvement entry in data set [2] (Day 7, no dose given) is “Same”. The “Side Effects or Disinhibition” value in data set [2] (setting [6]) is on record as “None”; in data set [2] (setting [7]), “None”; in data set [2] (Day 3, no dose given), “None”; in data set [2] (Day 4, no dose given), “None”; in data set [2] (setting [8]), “None”; in data set [2] (Day 6, no dose given) it was “None”. Further, in data set [2] (Day 7, no dose given), the “Side Effects or Disinhibition” value is “None”. Besides, the “Degree or Detail of Improvement” value is given as “Spoke normally” in data set [2] (Day 3, no dose given); “Same as Day 3” in data set [2] (Day 4, no dose given); “Ate their meal” in data set [2] (setting [8]); “Same as Day 4” in data set [2] (Day 6, no dose given). In addition, the effect on socialization entry is listed as “increase their socialization” in data set [3] and “increasing their socialization” in data set [3] (listed as Mematine).
For the compound `COc1cc2nc(N3CCN(C(=O)C4COc5ccccc5O4)CC3)nc(N)c2cc1OC` (stereo not drawn) [doxazosin], the “effect on severe psychotic symptoms” value in data set [4] (doxazosin added, patient on propranolol and haloperidol) is “stopped the severe psychotic symptoms”.
With `CNC1(C)C2CCC(C2)C1(C)C` (stereo not drawn) [mecamylamine], the success of treatment entry in data set [1] is on record as “successful”. Besides, the “duration of effect of improved verbal communication” value in data set [5] (one dose) was “up to two”; in data set [5] (one weekly protocol) it was “up to 4 months”.
Take `CC(C)NCC(O)COc1cccc2ccccc12` (stereo not drawn) [propranolol]: in data set [4] (on propranolol, compared with before beta blocker treatment), the “character of rage when it occurred” value is “wilder and more psychotic”. For the same compound, the frequency of rages result in data set [4] (on the beta blocker propranolol) was “less frequent rages”.
